Data taken from US20120135923A1, “Use of Melanocortins to Treat Dyslipidemia” (IPSEN PHARMA, S.A.S., priority 2009, published 2012).
Entries after “also recorded” stand apart in the source; their conditions may differ. Read-outs that look alike come from different tables or passages of the source. Bridge positions count the residues as written; N and C are the ends. Square brackets hold non-standard residues; d marks the D form. Peptide text beside a SMILES is read from it. Bip = N[C@@H](Cc1ccc(-c2ccccc2)cc1)C(=O)O; 1Nal = N[C@@H](Cc1cccc2ccccc12)C(=O)O; d2Nal = N[C@H](Cc1ccc2ccccc2c1)C(=O)O; hArg = N=C(N)NCCCC[C@H](N)C(=O)O; Nle = CCCC[C@H](N)C(=O)O; Ahx = NCCCCCC(=O)O; GABA = NCCCC(=O)O; βAla = NCCC(=O)O

What was measured:
obese Zucker rats [1] = assay: Serum triglycerides, cholesterol and free fatty acids after 7 day sc infusion; format: in vivo, rat; conditions: 50 and 500 nmole/kg/day sc infusion
Description: (§1) The dosage forms were prepared prior to the start of the experiment and used to fill the pumps under sterile conditions. Pumps were primed overnight at 37° C. in sterile saline and implanted on the starting day of the experiment.
(§2) Three groups of eight obese male Zucker rats (350-400 g) were housed in individual cages and maintained under 12:12 hour light:dark conditions with both food (Harlan Teklad Sterilized Rodent Diet LM-485) and water available ad libitum.
(§3) On the morning of day 1, the rats were anesthetized using chlorohydrate anesthetic and implanted with a sub-cutaneous infusion pump (Alzet® 2002) just under the skin. […] Individual body weight and food and water consumption were measured daily at 0800 hours for 7 days.
(§4) On day 7 a right atrial cannula was implanted in the jugular vein under cholorohydrate anesthesia. The animals were fasted overnight and an intravenous (iv) glucose tolerance test was performed. Glucose (1 g/kg) was injected at time 0 and blood samples were taken via the cannula at 0, 2.5, 5, 10, 20 and 40 minutes post-injection. Plasma was collected and assayed for glucose (Glucose (Trinder) Assay; Diagnostic Chemicals Limited, Charlottetown, P.E.I., Canada; Cat #220-32) and insulin (Mercodia Rat Insulin ELISA; Mercodia, Uppsala, Sweden; ALPCO 10-1124-10) content. At the conclusion of the glucose tolerance test and additional serum samples were collected and assayed for triglycerides (Triglyceride L-Type TG H kit: Wako Diagnostics, Richmond, Va.), cholesterol (Cholesterol E assay kit: Wako Diagnostics, Richmond, Va.) and free fatty acids (Fatty Acid HR series NEFA-HR2 kit: Wako Diagnostics, Richmond, Va.).

hMC5-R [2] = target: T1, hMC5-R (Homo sapiens, UniProt P33032); assay: cyclic AMP bioassay (ECL) in CHO-K1 cells; format: cell-based
T1 construct: expressed in transfected cells; host or cells: CHO-K1
T1 sequence (P33032 whole entry): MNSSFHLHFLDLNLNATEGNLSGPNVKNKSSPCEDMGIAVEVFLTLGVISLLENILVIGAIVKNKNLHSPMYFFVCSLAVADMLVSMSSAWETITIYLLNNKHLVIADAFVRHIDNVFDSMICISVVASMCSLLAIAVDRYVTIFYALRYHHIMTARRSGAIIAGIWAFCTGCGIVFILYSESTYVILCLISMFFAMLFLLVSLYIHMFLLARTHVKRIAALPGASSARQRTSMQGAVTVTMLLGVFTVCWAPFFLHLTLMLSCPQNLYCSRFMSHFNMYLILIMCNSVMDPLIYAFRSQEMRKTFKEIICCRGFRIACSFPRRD
Description: Intracellular cyclic AMP (cAMP) levels were determined by an electrochemiluminescence (ECL) assay (Meso Scale Discovery®, Gaithersburg, Md.; referred to hereinafter as MSD). […] Transgenic CHO-K1 cells stably expressing hMC receptor subtypes 1, 3, 4 or 5 were dispensed at a density of approximately 7,000 cells/well in 384-well Multi-Array®plates (MSD) containing integrated carbon electrodes and coated with anti-cAMP antibody. Increasing concentrations of the test compounds were added and the cells were incubated for approximately 40 minutes at approximately 37° C. […] At the end of the second incubation period read buffer (Tris-buffered solution containing an ECL co-reactant and Triton X-100 at ph 7.8) was added and the cAMP levels in the cell lysates were immediately determined by ECL detection with a Sector Imager 6000 Reader® (MSD). Data were analyzed using a computer-assisted non-linear regression analysis (XL fit; IDBS) and reported as either an EC50 value or a Kb value.
The Kb value reflects the potency of an antagonist and is determined by Schild analysis. In brief, concentration-response curves of an agonist are carried out in the presence of increasing concentrations of an antagonist. […] It is calculated by extrapolating the line on a Schild plot to zero on the y-axis.

hMC5-R [3] = target: T1, hMC5-R; assay: Radioligand binding assay, [125I]-NDP-α-MSH competition, CHO-K1 membranes; conditions: Table 5
obese Zucker rats [4] = assay: Intravenous glucose tolerance test after 7 day sc infusion; format: in vivo, rat
Description: as §1, §2, §3, §4

obese Zucker rats [5] = assay: Body weight and food intake, 7 day sc infusion; format: in vivo, rat; conditions: for decrease in body weight gain: day 7, vs vehicle; for decrease in food intake: end of 7 day treatment
Description: as §1
The Zucker rats are obese due to a spontaneous mutation in the […].
as §2, §3

hMC4-R [6] = target: T2, hMC4-R (Homo sapiens, UniProt P32245); assay: cyclic AMP bioassay (ECL) in CHO-K1 cells; format: cell-based; conditions: for Kb: Table 9C/9D, antagonist potency by Schild analysis, read-out: Kb MC4-R
T2 construct: expressed in transfected cells; host or cells: CHO-K1
T2 sequence (P32245 whole entry): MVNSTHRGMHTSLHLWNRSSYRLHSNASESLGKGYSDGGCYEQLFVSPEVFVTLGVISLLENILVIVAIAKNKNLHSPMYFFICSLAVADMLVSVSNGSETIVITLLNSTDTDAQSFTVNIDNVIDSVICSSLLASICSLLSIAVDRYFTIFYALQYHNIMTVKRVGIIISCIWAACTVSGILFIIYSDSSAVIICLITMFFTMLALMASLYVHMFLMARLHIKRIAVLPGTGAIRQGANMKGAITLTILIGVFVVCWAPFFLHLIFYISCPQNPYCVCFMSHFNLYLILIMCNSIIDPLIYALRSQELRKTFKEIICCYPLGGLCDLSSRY

hMC1-R [7] = target: T3, hMC1-R (Homo sapiens, UniProt Q01726); assay: Radioligand binding assay, [125I]-NDP-α-MSH competition, CHO-K1 membranes; conditions: Table 5
T3 construct: expressed in transfected cells; host or cells: CHO-K1
T3 sequence (Q01726 whole entry): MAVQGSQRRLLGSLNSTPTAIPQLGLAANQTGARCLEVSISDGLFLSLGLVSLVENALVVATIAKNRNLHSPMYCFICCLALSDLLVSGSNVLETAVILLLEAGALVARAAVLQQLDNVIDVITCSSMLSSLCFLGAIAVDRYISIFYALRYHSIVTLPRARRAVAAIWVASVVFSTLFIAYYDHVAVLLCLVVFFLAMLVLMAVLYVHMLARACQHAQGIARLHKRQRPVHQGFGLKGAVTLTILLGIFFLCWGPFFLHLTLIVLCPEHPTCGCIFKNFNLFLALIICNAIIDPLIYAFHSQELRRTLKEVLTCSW

hMC4-R [8] = target: T2, hMC4-R; assay: as above; conditions: Table 5
hMC3-R [9] = target: T4, hMC3-R (Homo sapiens, UniProt P41968); assay: as above; conditions: Table 5
T4 construct: expressed in transfected cells; host or cells: CHO-K1
T4 sequence (P41968 whole entry): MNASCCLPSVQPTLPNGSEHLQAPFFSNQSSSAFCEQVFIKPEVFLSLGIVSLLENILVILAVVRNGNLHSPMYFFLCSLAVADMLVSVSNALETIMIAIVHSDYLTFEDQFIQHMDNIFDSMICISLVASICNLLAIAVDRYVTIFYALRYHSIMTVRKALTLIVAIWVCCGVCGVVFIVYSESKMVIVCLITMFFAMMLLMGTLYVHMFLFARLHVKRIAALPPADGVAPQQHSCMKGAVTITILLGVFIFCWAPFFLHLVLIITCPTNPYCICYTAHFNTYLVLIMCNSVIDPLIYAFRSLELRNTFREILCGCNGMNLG

hMC3-R [10] = target: T4, hMC3-R; assay: cyclic AMP bioassay (ECL) in CHO-K1 cells; format: cell-based; conditions: for Kb: Table 9C/9D, antagonist potency by Schild analysis, read-out: Kb hMC3-R
hMC1-R [11] = target: T3, hMC1-R; assay: cyclic AMP bioassay (ECL) in CHO-K1 cells; format: cell-based
[12] = Table 9C/9D, read-out: EC50 hMC5-R
[13] = Table 9C/9D, read-out: EC50 hMC1-R
[14] = Table 9A/9B, read-out: EC50 hMC5-R
[15] = Table 9A/9B, read-out: EC50 hMC4-R
[16] = Table 9A/9B, read-out: EC50 hMC3-R
[17] = Table 9A/9B, read-out: EC50 hMC1-R

Row | SMILES | EC50 (hMC5-R [2]; [12]) [nM] | Kb (hMC4-R [6]) [nM] | Ki (hMC1-R [7]; read-out: Ki hMC1-R) [nM] | Ki (hMC5-R [3]; read-out: Ki hMC5-R) [nM] | Ki (hMC4-R [8]; read-out: Ki KMC4-R) [nM] | Ki (hMC3-R [9]; read-out: Ki hMC3-R) [nM] | Kb (hMC3-R [10]) [nM] | EC50 (hMC1-R [11]; [13]) [nM] | other results
1 | CC(=O)N[C@@H](CCCNC(=N)N)C(=O)N[C@H]1CSSC[C@@H](C(N)=O)NC(=O)[C@H](Cc2c[nH]c3ccccc23)NC(=O)[C@H](CCCNC(=N)N)NC(=O)[C@@H](Cc2ccccc2)NC(=O)[C@H](Cc2c[nH]cn2)NC(=O)[C@@H](C)NC1=O [Compound A, Ac-Arg-c(Cys-D-Ala-His-D-Phe-Arg-Trp-Cys)-NH2] | – | – | – | – | – | – | – | – | serum cholesterol (obese Zucker rats [1]): Dose-related decrease; serum free fatty acids (obese Zucker rats [1]): dose-related decreases; also recorded: Decrease; serum triglycerides (obese Zucker rats [1]): Dose-related decrease; EC50 (hMC5-R [2]): 1630 nM; Ki (hMC5-R [3]; Ki hMC5-R): 430 nM; basal fasted plasma glucose (obese Zucker rats [4]; 500 nmole/kg/day sc infusion, fasted overnight): decreased; plasma glucose levels after a glucose challenge (obese Zucker rats [4]; 50 and 500 nmole/kg/day, glucose 1 g/kg iv): decreased; amount of insulin required to clear the glucose challenge (obese Zucker rats [4]; 7 day infusion, glucose tolerance test): decreased; decrease in body weight gain (obese Zucker rats [5]; 50 nmole/kg/day sc infusion): 35 g; decrease in food intake (obese Zucker rats [5]; 50 nmole/kg/day sc infusion): 60 g; decrease in body weight gain (obese Zucker rats [5]; 500 nmole/kg/day sc infusion): 60 g; decrease in food intake (obese Zucker rats [5]; 500 nmole/kg/day sc infusion): 100 g
2 | CCCC[C@H](NC(C)=O)C(=O)N[C@H]1CSSC[C@@H](C(N)=O)NC(=O)[C@H](Cc2c[nH]c3ccccc23)NC(=O)[C@H](CCCNC(=N)N)NC(=O)[C@@H](Cc2ccccc2)NC(=O)[C@H](Cc2c[nH]cn2)NC(=O)[C@@H](C)NC1=O [Ac-Nle-c(Cys-D-Ala-His-D-Phe-Arg-Trp-Cys)-NH2] | – | – | – | – | – | – | – | – | EC50 (hMC5-R [2]): 420 nM; EC50 (hMC4-R [6]): 0.078 nM; Ki (hMC1-R [7]; Ki hMC1-R): 11 nM; Ki (hMC5-R [3]; Ki hMC5-R): 1800 nM; Ki (hMC4-R [8]; Ki KMC4-R): 7.6 nM; Ki (hMC3-R [9]; Ki hMC3-R): 26 nM; EC50 (hMC3-R [10]): 0.33 nM; EC50 (hMC1-R [11]): 2.4 nM
3 | CCCC[C@H](NC(C)=O)C(=O)N[C@H]1CSSC[C@@H](C(N)=O)NC(=O)[C@H](Cc2cccc3ccccc23)NC(=O)[C@H](CCCNC(=N)N)NC(=O)[C@@H](Cc2ccc3ccccc3c2)NC(=O)[C@H](Cc2c[nH]cn2)NC(=O)[C@@H](C)NC1=O [Ac-Nle-c(Cys-D-Ala-His-D-2-Nal-Arg-1-Nal-Cys)-NH2] (Ac-[Nle]C[dA]H[d2Nal]R[1Nal]C-NH2; disulfide 2-8) | 2840 | 53.6 | 114 | 1660 | 3.07 | 63.9 | 61.5 | 383 | –
4 | CCOc1ccc(C[C@H]2NC(=O)[C@H](Cc3c[nH]cn3)NC(=O)[C@@H](NC(=O)[C@H](N)Cc3ccccc3)CSSC[C@H](C(=O)N[C@H](C(N)=O)[C@@H](C)O)NC(=O)CCNC(=O)[C@H](Cc3ccc(-c4ccccc4)cc3)NC(=O)[C@H](CCCCNC(=N)N)NC2=O)cc1 [D-Phe-c(Cys-His-D-(Et)Tyr-hArg-Bip-β-Ala-D-Cys)-Thr-NH2] (H-[dF]CH[dY](Et)[hArg][Bip][βAla][dC]T-NH2; disulfide 2-8) | – | – | 0.128 | 38 | 36.9 | 85.6 | – | – | EC50 (hMC5-R [2]; [14]): 31.8 nM; EC50 (hMC4-R [6]; [15]): 86.9 nM; EC50 (hMC3-R [10]; [16]): 81.8 nM; EC50 (hMC1-R [11]; [17]): 0.685 nM
5 | CCOc1ccc(C[C@H]2NC(=O)[C@H](Cc3c[nH]cn3)NC(=O)[C@@H](NC(=O)[C@H](N)Cc3ccccc3)CSSC[C@H](C(=O)N[C@H](C(N)=O)[C@@H](C)O)NC(=O)CCNC(=O)[C@H](Cc3c[nH]c4ccccc34)NC(=O)[C@H](CCCCNC(=N)N)NC2=O)cc1 [D-Phe-c(Cys-His-D-(Et)Tyr-hArg-Trp-β-Ala-D-Cys)-Thr-NH2] (H-[dF]CH[dY](Et)[hArg]W[βAla][dC]T-NH2; disulfide 2-8) | – | – | 0.0567 | 9.27 | 14.7 | 31.4 | – | – | EC50 (hMC5-R [2]; [14]): 2.38 nM; EC50 (hMC4-R [6]; [15]): 5.38 nM; EC50 (hMC3-R [10]; [16]): 2.71 nM; EC50 (hMC1-R [11]; [17]): 0.345 nM
6 | CCCC[C@H](NC(C)=O)C(=O)N[C@H]1CSSC[C@@H](C(N)=O)NC(=O)CCCCCNC(=O)[C@H](Cc2c[nH]c3ccccc23)NC(=O)[C@H](CCCNC(=N)N)NC(=O)[C@@H](Cc2ccc3ccccc3c2)NC(=O)[C@H](Cc2c[nH]cn2)NC1=O [Ac-Nle-c(Cys-His-D-2-Nal-Arg-Trp-Ahx-Cys)-NH2] (Ac-[Nle]CH[d2Nal]RW[Ahx]C-NH2; disulfide 2-8 (inferred)) | 0.126 | 0.967 | 0.333 | 0.366 | 0.998 | 2.91 | 10.8 | 0.581 | –
7 | CC(=O)N[C@@H](CC1CCCCC1)C(=O)N[C@H]1CC(=O)NCCCC[C@@H](C(N)=O)NC(=O)CCCNC(=O)[C@H](Cc2c[nH]c3ccccc23)NC(=O)[C@H](CCCNC(=N)N)NC(=O)[C@@H](Cc2ccc3ccccc3c2)NC(=O)[C@H](Cc2c[nH]cn2)NC1=O [Ac-Cha-c(Asp-His-D-2-Nal-Arg-Trp-Gaba-Lys)-NH2] | 0.736 | 0.442 | 0.576 | 3.91 | 2.82 | 3.98 | 3.02 | 1.27 | –
8 | CCCC[C@H](NC(C)=O)C(=O)N[C@H]1CSSC[C@@H](C(N)=O)NC(=O)CCCNC(=O)[C@H](Cc2c[nH]c3ccccc23)NC(=O)[C@H](CCCNC(=N)N)NC(=O)[C@@H](Cc2ccc3ccccc3c2)NC(=O)[C@H](Cc2c[nH]cn2)NC1=O [Ac-Nle-c(Cys-His-D-2-Nal-Arg-Trp-Gaba-Cys)-NH2] (Ac-[Nle]CH[d2Nal]RW[GABA]C-NH2; disulfide 2-8) | 0.153 | 0.782 | 0.393 | 1.11 | 0.375 | 1.86 | 18.4 | 0.231 | –
9 | C[C@@H](O)[C@H](NC(=O)[C@H]1CSSC[C@H](NC(=O)[C@H](N)Cc2ccccc2)C(=O)N[C@@H](Cc2c[nH]cn2)C(=O)N[C@H](Cc2ccccc2)C(=O)N[C@@H](CCCNC(=N)N)C(=O)N[C@@H](Cc2c[nH]c3ccccc23)C(=O)NCCC(=O)N1)C(N)=O [D-Phe-c(Cys-His-D-Phe-Arg-Trp-β-Ala-D-Cys)-Thr-NH2] (H-[dF]CH[dF]RW[βAla][dC]T-NH2; disulfide 2-8) | – | – | 0.207 | 344 | 2.58 | 43.2 | – | – | –
